# Test results: PubChem BioAssay (NCI)
#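 Dose response: 5 concentrations. Exposure: 48 h. Format: 96-well plates. Endpoint: linear interpolation; highest concentration if not reached. Abbreviation: GI50, concentration required for 50% inhibition of growth. TGI marks complete inhibition of growth.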
# Key:
# Assay in all cases: NCI anticancer screen, dose series, 48 h
# [1] = tested on: MDA-MB-231 breast
# [2] = tested on: U251 CNS
# [3] = tested on: COLO 205 colon
# [4] = tested on: UACC-257 melanoma
# [5] = tested on: PC-3 prostate
# [6] = tested on: UO-31 renal
# [7] = tested on: NCI-H460 lung
# [8] = tested on: CCRF-CEM leukemia
# [9] = tested on: SN12C renal
# [10] = tested on: LOX IMVI melanoma
# [11] = tested on: HL-60(TB) leukemia
# [12] = tested on: NCI-H23 lung
# [13] = tested on: IGROV1 ovarian
# [14] = tested on: ACHN renal
# [15] = tested on: OVCAR-3 ovarian
# [16] = tested on: M14 melanoma
# [17] = tested on: CAKI-1 renal
# [18] = tested on: RPMI-8226 leukemia
# [19] = tested on: UACC-62 melanoma
# [20] = tested on: NCI-H226 lung
# [21] = tested on: DU-145 prostate
# [22] = tested on: A549 NSCLC
# [23] = tested on: SK-OV-3 ovarian
# [24] = tested on: SF-268 CNS
# [25] = tested on: SF-539 CNS
# [26] = tested on: KM12 colon
# [27] = tested on: NCI-H522 lung
# [28] = tested on: HCT-116 colon
# [29] = tested on: RXF 393 renal
# [30] = tested on: SK-MEL-28 melanoma
# [31] = tested on: SF-295 CNS
# [32] = tested on: OVCAR-4 ovarian
# [33] = tested on: MCF7 breast
# [34] = tested on: T-47D breast
# [35] = tested on: A498 renal
# [36] = tested on: MOLT-4 leukemia
# [37] = tested on: OVCAR-5 ovarian
# [38] = tested on: SNB-75 CNS
# [39] = tested on: SW-620 colon
# [40] = tested on: K-562 leukemia
# [41] = tested on: HOP-62 NSCLC
# [42] = tested on: SNB-19 CNS
# [43] = tested on: SK-MEL-5 melanoma
# [44] = tested on: TK-10 renal
# [45] = tested on: HS 578T breast
# [46] = tested on: BT-549 breast
# [47] = tested on: NCI/ADR-RES ovarian
# [48] = tested on: HCT-15 colon
# [49] = tested on: MDA-MB-435
# [50] = tested on: HT29 colon
# [51] = tested on: OVCAR-8 ovarian
# [52] = tested on: MALME-3M melanoma
# [53] = tested on: HOP-92 NSCLC
# [54] = tested on: SK-MEL-2 melanoma
# [55] = tested on: 786-0 renal
# [56] = tested on: HCC-2998 colon
# [57] = tested on: SR leukemia
structure (smiles),measurement,setting,value
Cc1cccc2c(C3=C(c4cn(C)c5ccccc45)C(=O)NC3=O)cn(C)c12,GI50,[1],> 19.6 µM
same,TGI,[1],> 25 µM
same,GI50,[2],> 25 µM
same,TGI,[2],> 25 µM
same,GI50,[3],> 16.9 µM
same,TGI,[3],> 25 µM
same,GI50,[4],24.8 µM
same,TGI,[4],> 25 µM
same,GI50,[5],18.9 µM
same,TGI,[5],> 25 µM
same,GI50,[6],> 21.5 µM
same,TGI,[6],> 25 µM
same,GI50,[7],> 21.8 µM
same,TGI,[7],> 25 µM
same,GI50,[8],> 18 µM
same,TGI,[8],> 25 µM
same,GI50,[9],> 25 µM
same,TGI,[9],> 25 µM
same,GI50,[10],> 22 µM
same,TGI,[10],> 25 µM
same,GI50,[11],> 25 µM
same,TGI,[11],> 25 µM
same,GI50,[12],> 25 µM
same,TGI,[12],> 25 µM
same,GI50,[13],25 µM
same,TGI,[13],> 25 µM
same,GI50,[14],13.1 µM
same,TGI,[14],> 25 µM
same,GI50,[15],9.33 µM
same,TGI,[15],> 25 µM
same,GI50,[16],> 25 µM
same,TGI,[16],> 25 µM
same,GI50,[17],> 19.1 µM
same,TGI,[17],> 25 µM
same,GI50,[18],> 18.6 µM
same,TGI,[18],> 25 µM
same,GI50,[19],> 25 µM
same,TGI,[19],> 25 µM
same,GI50,[20],> 25 µM
same,TGI,[20],> 25 µM
same,GI50,[21],> 25 µM
same,TGI,[21],> 25 µM
same,GI50,[22],> 25 µM
same,TGI,[22],> 25 µM
same,GI50,[23],> 22.5 µM
same,TGI,[23],> 25 µM
same,GI50,[24],13.6 µM
same,TGI,[24],> 25 µM
same,GI50,[25],19.1 µM
same,TGI,[25],> 25 µM
same,GI50,[26],> 20.8 µM
same,TGI,[26],> 25 µM
same,GI50,[27],> 17 µM
same,TGI,[27],> 25 µM
same,GI50,[28],> 15.8 µM
same,TGI,[28],> 25 µM
same,GI50,[29],6.16 µM
same,TGI,[29],24.4 µM
same,GI50,[30],17.5 µM
same,TGI,[30],> 25 µM
same,GI50,[31],> 24 µM
same,TGI,[31],> 25 µM
same,GI50,[32],6.64 µM
same,TGI,[32],> 23.1 µM
same,GI50,[33],9.03 µM
same,TGI,[33],> 25 µM
same,GI50,[34],> 20 µM
same,TGI,[34],> 25 µM
same,GI50,[35],> 25 µM
same,TGI,[35],> 25 µM
same,GI50,[36],> 25 µM
same,TGI,[36],> 25 µM
same,GI50,[37],> 25 µM
same,TGI,[37],> 25 µM
same,GI50,[38],1.15 µM
same,TGI,[38],> 25 µM
same,GI50,[39],12.7 µM
same,TGI,[39],> 25 µM
same,GI50,[40],> 19.7 µM
same,TGI,[40],> 25 µM
same,GI50,[41],13.4 µM
same,TGI,[41],> 25 µM
same,GI50,[42],> 25 µM
same,TGI,[42],> 25 µM
same,GI50,[43],> 22.2 µM
same,TGI,[43],> 25 µM
same,GI50,[44],> 25 µM
same,TGI,[44],> 25 µM
same,GI50,[45],2.83 µM
same,TGI,[45],17.3 µM
same,GI50,[46],12.7 µM
same,TGI,[46],> 25 µM
same,GI50,[47],> 19.6 µM
same,TGI,[47],> 25 µM
same,GI50,[48],11.5 µM
same,TGI,[48],> 25 µM
same,GI50,[49],1.24 µM
same,TGI,[49],> 25 µM
same,GI50,[50],> 13.8 µM
same,TGI,[50],> 25 µM
same,GI50,[51],12.2 µM
same,TGI,[51],> 25 µM
same,GI50,[52],> 17.8 µM
same,TGI,[52],> 25 µM
same,GI50,[53],9.91 µM
same,TGI,[53],> 25 µM
same,GI50,[54],24.3 µM
same,TGI,[54],> 25 µM
same,GI50,[55],> 22.1 µM
same,TGI,[55],> 25 µM
same,GI50,[56],> 25 µM
same,TGI,[56],> 25 µM
same,GI50,[57],4.88 µM
same,TGI,[57],> 25 µM
